Where two headings read alike, the source gives them in different places.
What was measured:
isolated swine trachea = experiment: ASL layer height by synchrotron phase contrast imaging, isolated wild-type swine trachea (ex vivo)
airway submucosal glands = experiment: Fluid secretion assay of airway submucosal glands (droplets under oil); settings: WT swine, FIG. 12
Protocol: To confirm that both exemplary neuronal agonists capsaicin and menthol stimulate active fluid secretion by airway submucosal glands in WT swine, the effect of exemplary neuronal agonists menthol and capsaicin was on fluid secretion rate was measured using the secretion assay as described elsewhere^21. The mucosal layer from trachea or primary bronchus, with underlying glands, was dissected from the cartilage. A piece of tissue of about 1 cm^2 was pinned mucosal side up and mounted in a 35-mm-diameter plastic Petri dish lined with Sylgard (Dow Corning Corp). The serosal side was immersed in a bathing solution ( 1 ml volume), and the mucosa was in air. Before experimentation, the mucosal surface was gently cleaned and blotted dry with cotton swabs and further dried with a stream of air, after water-saturated mineral oil was placed on the surface.

live wild-type swine = experiment: ASL layer height by synchrotron phase contrast imaging, live wild-type swine; settings: added alone to HTS, WT swine in vivo, lesser extent than with capsaicin, FIG. 11
[1] = test system: ex vivo swine trachea preparations; experiment: Mucociliary clearance assay, tantalum disk movement on excised swine trachea
[2] = ex vivo wild-type trachea, HTS 7% w/v NaCl, 18 min

## O=C(O)c1ccc(/C=C2\SC(=S)N(c3cccc(C(F)(F)F)c3)C2=O)cc1 [CFTRinh172]
Isolated swine trachea; wild-type swine trachea preparations ex vivo, FIG. 8
  effect on HTS-triggered ASL secretion, time course: decreases the effect of HTS on ASL secretion

## CC1CCC(C(C)C)C(O)C1 (stereo not shown) [menthol, 5-Methyl-2-(propan-2-yl)cyclohexan-1-ol]
Airway submucosal glands
  ASL secretion by the submucosal glands: triggers significant ASL secretion
Live wild-type swine
  duration of treatment: increase the intensity and duration of treatment
  intensity of treatment: increase the intensity and duration of treatment

## N=C(N)NC(=O)c1nc(Cl)c(N)nc1N [amiloride]
Isolated swine trachea; [2]
  effect on HTS-triggered ASL layer height increase: did not affect HTS treatment

## COc1cc(CNC(=O)CCCC/C=C/C(C)C)ccc1O [capsaicin, (6E)-N-[(4-Hydroxy-3-methoxyphenyl)methyl]-8-methylnon-6-enamide]
Airway submucosal glands
  ASL secretion by the submucosal glands: triggers significant ASL secretion
[1]; WT swine airways, added to HTS, FIG. 13
  HTS-triggered increase in mucociliary clearance: augmented
[1]; WT swine airways, added to ITS, FIG. 13
  ITS-triggered increase in mucociliary clearance: augmented

## Ic1ccccc1CN[C@@H]1C2CCN(CC2)[C@@H]1C(c1ccccc1)c1ccccc1 [L-703606]
Isolated swine trachea; [2]
  effect on HTS-triggered ASL layer height increase: significantly reduced
Isolated swine trachea; ex vivo wild-type trachea, ITS 0.9% w/v NaCl, 18 min
  effect on ASL layer height in ITS-treated preparations: had no effect
Isolated swine trachea; ex vivo, CFTRinh172 100 μM (model of airways without CFTR function), 18 min
  effect on response to HTS treatment in preparations incubated with CFTRinh172: unaffected

## C=C(C)[C@@H]1CC[C@@H](C)C[C@H]1O [(−)-isopulegol, (1R,2S,5R)-2-Isopropenyl-5-methylcyclohexanol]
[1]; wild-type swine ex vivo, added to HTS, measured at 0, 90 and 150 min, FIG. 15
  duration of HTS-triggered mucociliary clearance: extended the duration of HTS-triggered mucociliary clearance

## CN1[C@@H]2CC[C@H]1C[C@@H](OC(=O)C(CO)c1ccccc1)C2 (stereo partly shown) [atropine]
Isolated swine trachea
  effect on ASL layer height in ITS-treated preparations: had no effect
  effect on HTS-triggered ASL layer height increase: reduced HTS-triggered ASL secretion
  effect on ITS-treated preparations incubated with CFTRinh172: had no effect
  effect on response to HTS treatment in preparations incubated with CFTRinh172: reduced the response to HTS treatment
